According to article PMC4450297, “Screening Active Compounds from Garcinia Species Native to China Reveals Novel Compounds Targeting the STAT/JAK Signaling Pathway” (BioMed Research International, 2015):

What was measured:
Experiment in all cases: Cell panel screen (CellTiter-Glo)
Format in all cases: cell-based, human
[1] = system: HCC1937; settings: HCC1937 (Breast), 20 micromolar, 72 hrs
Method: (§1) All cells were obtained from the cell bank of the American Type Culture Collection (ATCC) and cultured in the supplier's recommended media supplemented with 10% FBS. The cell panel screen was measured using the CellTiter-Glo assay (Promega, Madison, WI) following a standard protocol. Briefly, cancer cells were seeded in 96-well plates and cultured overnight at 37°C with or without 5% CO2 in an incubator. Each compound was dissolved with limited DMSO and diluted to a certain concentration with culture medium and then added to the corresponding well of the cell plate. The final concentration of compound was 20 μM. The control cells (without treatment) received the same amount of DMSO and were incubated under the same conditions. After 72 h cultivation, 100 μL of the CellTiter-Glo reagent was added directly to each well for 10-minute incubation. The plate was then read on a FlexStation 3 microplate luminometer (Molecular Devices, USA) to monitor the luminescence signal generated by the luciferase-catalyzed reaction of luciferin and ATP. The percent of growth inhibition was calculated using the following formula: (untreated cells − treated cells)/(untreated cells − background without cells) ∗ 100.

[2] = system: BT-549; settings: BT-549 (Breast), 20 micromolar, 72 hrs
Method: as §1

[3] = system: M059J; settings: M059J (Brain), 20 micromolar, 72 hrs
Method: as §1

[4] = system: T47D; settings: T47D (Breast), 20 micromolar, 72 hrs
Method: as §1

[5] = system: T98G; settings: T98G (Brain), 20 micromolar, 72 hrs
Method: as §1

[6] = system: C3A; settings: C3A (Liver), 20 micromolar, 72 hrs
Method: as §1

[7] = system: NCI-H1694; settings: NCI-H1694 (Lung), 20 micromolar, 72 hrs
Method: as §1

[8] = system: ZR-75-30; settings: ZR-75-30 (Breast), 20 micromolar, 72 hrs
Method: as §1

[9] = system: C8166; settings: C8166 (Leukemia), 20 micromolar, 72 hrs
Method: as §1

[10] = system: Colo 205; settings: Colo 205, 20 micromolar, 72 hrs
Method: as §1

[11] = system: HCC1395; settings: HCC1395 (Breast), 20 micromolar, 72 hrs
Method: as §1

[12] = system: HEC-1-A; settings: HEC-1-A (Uterus), 20 micromolar, 72 hrs
Method: as §1

[13] = system: A498; settings: A498 (listed under Lung), 20 micromolar, 72 hrs
Method: as §1

[14] = system: HPAF-II; settings: HPAF-II (Pancreas), 20 micromolar, 72 hrs
Method: as §1

[15] = system: MSTO-211-H; settings: MSTO-211-H (Lung), 20 micromolar, 72 hrs
Method: as §1

[16] = system: HGC-27; settings: HGC-27 (Stomach), 20 micromolar, 72 hrs
Method: as §1

[17] = system: NCI-H524; settings: NCI-H524 (Lung), 20 micromolar, 72 hrs
Method: as §1

[18] = system: NCI-H2405; settings: NCI-H2405 (Lung), 20 micromolar, 72 hrs
Method: as §1

[19] = system: ChaGo-K-1; settings: ChaGo-K-1 (Lung), 20 micromolar, 72 hrs
Method: as §1

[20] = system: Panc 03.27; settings: Panc 03.27 (Pancreas), 20 micromolar, 72 hrs
Method: as §1

[21] = system: RL95; settings: RL95 (Uterus), 20 micromolar, 72 hrs
Method: as §1

[22] = system: A704; settings: A704 (Kidney), 20 micromolar, 72 hrs
Method: as §1

[23] = system: J82; settings: J82 (Urinary bladder), 20 micromolar, 72 hrs
Method: as §1

[24] = system: CCF-STTG1; settings: CCF-STTG1 (Brain), 20 micromolar, 72 hrs
Method: as §1

[25] = system: NCI-H1623; settings: NCI-H1623 (Lung), 20 micromolar, 72 hrs
Method: as §1

[26] = system: HCC1569; settings: HCC1569 (Breast), 20 micromolar, 72 hrs
Method: as §1

[27] = system: CW-2; settings: CW-2 (Colon), 20 micromolar, 72 hrs
Method: as §1

[28] = system: NCI-H28; settings: NCI-H28 (Lung), 20 micromolar, 72 hrs
Method: as §1

[29] = system: TCCSUP; settings: TCCSUP (Urinary bladder), 20 micromolar, 72 hrs
Method: as §1

[30] = system: NCI-H2347; settings: NCI-H2347 (Lung), 20 micromolar, 72 hrs
Method: as §1

[31] = system: HCC1599; settings: HCC1599 (Breast), 20 micromolar, 72 hrs
Method: as §1

[32] = system: Bel-7402; settings: Bel-7402 (Liver), 20 micromolar, 72 hrs
Method: as §1

[33] = system: HT-1197; settings: HT-1197 (Urinary bladder), 20 micromolar, 72 hrs
Method: as §1

[34] = system: SW13; settings: SW13 (Adrenal gland), 20 micromolar, 72 hrs
Method: as §1

[35] = system: NCI-H1770; settings: NCI-H1770 (Lung), 20 micromolar, 72 hrs
Method: as §1

[36] = system: BT-474; settings: BT-474 (Breast), 20 micromolar, 72 hrs
Method: as §1

Row | Compound | Percent Inhibition [1] | Percent Inhibition [2] | Percent Inhibition [3] | Percent Inhibition [4] | Percent Inhibition [5] | Percent Inhibition [6] | Percent Inhibition [7] | Percent Inhibition [8] | Percent Inhibition [9] | Percent Inhibition [10] | Percent Inhibition [11] | Percent Inhibition [12] | Percent Inhibition [13] | Percent Inhibition [14] | Percent Inhibition [15] | Percent Inhibition [16] | Percent Inhibition [17] | Percent Inhibition [18] | Percent Inhibition [19] | Percent Inhibition [20] | also measured
1 | CC1(C)C=Cc2c(cc(O)c3c(=O)c4ccc(O)c(O)c4oc23)O1 [gl-18] | 85% | 86% | 91% | 83% | 91% | 81% | 98% | 95% | 92% | 96% | 94% | 81% | 74% | 82% | 85% | 92% | 96% | 66% | 91% | 96% | Percent Inhibition [21]: 94%; Percent Inhibition [22]: 66%; Percent Inhibition [23]: 88%; Percent Inhibition [24]: 81%; Percent Inhibition [25]: 77%; Percent Inhibition [26]: 81%; Percent Inhibition [27]: 95%; Percent Inhibition [28]: 77%; Percent Inhibition [29]: 85%; Percent Inhibition [30]: 84%; Percent Inhibition [31]: 92%; Percent Inhibition [32]: 78%; Percent Inhibition [33]: 90%; Percent Inhibition [34]: 96%; Percent Inhibition [35]: 89%; Percent Inhibition [36]: 92%
2 | CC(C)=CCc1c(O)cc(O)c2c1O[C@]13C(=C[C@@H]4C[C@H]1C(C)(C)O[C@@]3(CC=C(C)C)C4=O)C2=O [GB35] | 100% | 100% | 100% | 100% | 100% | 98% | 100% | 100% | 99% | 100% | 100% | 100% | 93% | 100% | 99% | 100% | 100% | 99% | 99% | 99% | Percent Inhibition [21]: 100%; Percent Inhibition [22]: 99%; Percent Inhibition [23]: 99%; Percent Inhibition [24]: 100%; Percent Inhibition [25]: 100%; Percent Inhibition [26]: 100%; Percent Inhibition [27]: 100%; Percent Inhibition [28]: 93%; Percent Inhibition [29]: 100%; Percent Inhibition [30]: 97%; Percent Inhibition [31]: 100%; Percent Inhibition [32]: 99%; Percent Inhibition [33]: 96%; Percent Inhibition [34]: 100%; Percent Inhibition [35]: 100%; Percent Inhibition [36]: 99%
